Source: US9090593B2, “Bicyclic compounds as Pim inhibitors” (AMGEN INC., priority 2010, dated 2015)
Where a name gives a salt, the structure may show the parent alone. Read-outs that look alike come from different tables or passages of the source.

Tests used:
[1] = biological target: T1, full length recombinant Pim-1 protein (Homo sapiens, UniProt P11309); assay: Pim-1 enzyme assay (HTRF, phosphorylation of biotinylated-BAD (S112) peptide); assay type: biochemical; conditions: read-out: Pim_1_IC50
T1 construct: by full length recombinant Pim-1, Pim-2, or Pim-3 protein; hexahistidine tag followed by a thrombin cleavage site (N); made in house; host or cells: Sf9 (baculovirus) or E. coli (pET28)
T1 sequence (P11309 whole entry): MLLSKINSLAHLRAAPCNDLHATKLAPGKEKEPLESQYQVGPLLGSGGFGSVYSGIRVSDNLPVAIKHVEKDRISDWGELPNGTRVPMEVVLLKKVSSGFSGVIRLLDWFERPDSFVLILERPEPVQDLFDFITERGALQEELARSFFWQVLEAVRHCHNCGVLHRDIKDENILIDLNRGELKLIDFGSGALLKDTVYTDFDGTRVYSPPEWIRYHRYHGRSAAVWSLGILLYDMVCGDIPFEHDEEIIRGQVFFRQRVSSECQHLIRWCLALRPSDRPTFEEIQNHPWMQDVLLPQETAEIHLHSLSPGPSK
Description: (§1) These cDNAs were used as templates in PCR reactions to produce full-length DNA clones of the PIMs. […] PCR products were digested with […] and EcoRI for Pim-1 and BamHI and EcoRI for Pim-2 and ligated into a modified baculovirus transfer vector (pFastBac1) cleaved with BamHI and EcoRI. For bacterial expression, the same cleaved PCR products encoding Pim-1 or Pim-2 were ligated into a modified E. coli expression vector pET28(a) cleaved with BamHI and EcoRI Amino-terminal hexahistidine tags followed by a thrombin cleavage site were previously added to the vectors using standard methods of molecular biology. Recombinant baculoviruses expressing Pim-1 or Pim-2 were made using standard methods (Fastbac manual, Invitrogen, Carlsbad, Calif.). Infection of Sf9 cells was done at an m.o.i. of greater than 5 for 24-48 h. Cells were harvested by centrifugation and frozen at −80 C. For E. coli expression, cells carrying pET28-His6-Th-Pim-1 or pET28-His6-Th-Pim-2 were picked from a single colony and grown o/n in LB media. The o/n culture was used to inoculate a 2 liter flask with 500 mL media. This was grown o/n and used to inoculate 15-20 liters of Terrific Broth in a New Brunswick Scientific fermentor. The E. coli were grown at 37° C. to and OD600>1.6. The temperature was dropped to 18° C. and o/n expression was induced with 0.5 mM IPTG. Cells were harvested by centrifugation and frozen at −80° C.
(§2) This step was repeated 3× and the resin was transferred to a 2.5 cm glass column. Ten column volumes of wash buffer (0.05 M HEPES, pH 8.0, 0.1 M NaCl, 0.01 M 2-mercaptoethanol, 10% (w/v) glycerol) were applied to the resin followed by 10 column volumes of elution buffer (0.05 M HEPES, pH 8.0, 0.25 M NaCl, 0.01 M 2-mercaptoethanol, 10% (w/v) glycerol, 0.1 M imidazole). Fractions were analyzed by SDS-PAGE and those containing the protein of interest were pooled and concentrated. The concentrated protein was applied to an Amersham Superdex 75 (XK 26/60) column equilibrated in 0.025 M Tris-HCl, pH 7.5, 0.1 M NaCl, 0.01 M 2-mercaptoethanol, 10% (w/v) glycerol. […] Fractions containing the monomeric protein of interest were pooled, concentrated to ˜2 mg/mL, and stored at −80° C.
(§3) The phosphorylation of biotinylated-BAD (S112) peptide by full length recombinant Pim-1, Pim-2, or Pim-3 protein was detected with streptavidin:Allophycocyanin (APC) conjugate and a europium (Eu) labeled antibody directed against phosphorylated-BAD (S112). […] The fluorescence is directly proportional to the amount of phosphorylated BAD peptide present in the reaction.
(§4) A reference compound was included on each assay plate in order to validate that plate; on one plate of every assay run, two additional reference compounds were included.
(§5) The final buffer conditions were as follows: 60 mM Hepes, pH 7.0, 0.05% BSA, 2 mM DTT. […] The reaction was stopped by the addition of 3 mM EDTA, and fluorescence was measured by an HTRF® Rubystar microplate reader. For each plate, percent of control (POC) values were calculated for each well. Values for the IC50 IP were estimated using a standard 4-parameter logistic model.

[2] = biological target: T2, full length recombinant Pim-2 protein (Homo sapiens, UniProt Q9P1W9); assay: Pim-2 enzyme assay (HTRF, phosphorylation of biotinylated-BAD (S112) peptide); assay type: biochemical
T2 construct: by full length recombinant Pim-1, Pim-2, or Pim-3 protein; hexahistidine tag followed by a thrombin cleavage site (N); made in house; host or cells: Sf9 (baculovirus) or E. coli (pET28)
T2 sequence (Q9P1W9 whole entry): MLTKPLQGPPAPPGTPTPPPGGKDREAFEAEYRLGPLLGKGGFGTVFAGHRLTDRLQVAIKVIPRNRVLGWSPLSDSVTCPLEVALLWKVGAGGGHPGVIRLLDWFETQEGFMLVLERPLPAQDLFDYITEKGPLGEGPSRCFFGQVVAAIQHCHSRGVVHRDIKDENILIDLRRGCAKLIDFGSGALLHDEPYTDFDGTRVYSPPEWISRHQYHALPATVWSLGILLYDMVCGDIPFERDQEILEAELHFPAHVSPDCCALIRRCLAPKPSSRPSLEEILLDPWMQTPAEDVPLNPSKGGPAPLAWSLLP
Description: as §1, §2, §3, §4, §5

Structure (SMILES) | IC50 [1] [nM] | IC50 ([2]; read-out: Pim2_IC50) [µM] | IC50 ([2]; Pim2_IC50 (uM)) [µM]
O[C@@H]1CN(c2cncc(-c3n[nH]c4ccc(-c5c(F)cccc5F)cc34)n2)CC[C@@H]1O (single isomer, unassigned) [Example 249, cis-1-(6-(5-(2,6-difluorophenyl)-1H-indazol-3-yl)-2-pyrazinyl)-3,4-piperidinediol] | 32 | 0.269 | 
O[C@@H]1CN(c2cncc(-c3n[nH]c4ccc(-c5c(F)cccc5F)cc34)n2)CC[C@@H]1O (single isomer, unassigned) [Example 250, cis-1-(6-(5-(2,6-difluorophenyl)-1H-indazol-3-yl)-2-pyrazinyl)-3,4-piperidinediol] | 46 | 0.309 | 
Fc1cccc(F)c1-c1ccc2[nH]nc(-c3cncc(CC4CCCNC4)n3)c2c1 (single isomer, unassigned) [Example 273, 5-(2,6-difluorophenyl)-3-(6-(3-piperidinylmethyl)-2-pyrazinyl)-1H-indazole] | 70 | 0.287 | 
Fc1cccc(F)c1-c1ccc2[nH]nc(-c3cncc(CC4CCCNC4)n3)c2c1 (single isomer, unassigned) [Example 274, 5-(2,6-difluorophenyl)-3-(6-(3-piperidinylmethyl)-2-pyrazinyl)-1H-indazole] | 20 | 0.09 | 
Fc1cccc(F)c1-c1ccc2[nH]nc(-c3cncc(Oc4cccnc4)n3)c2c1 [Example 246, 5-(2,6-difluorophenyl)-3-(6-(3-pyridinyloxy)-2-pyrazinyl)-1H-indazole] | 551 | 0.798 | 
c1ccc(Nc2ccc3[nH]nc(-c4cncc(O[C@H]5CNCCC56CC6)n4)c3c2)cc1 [Example 251, 3-(6-((4R)-6-azaspiro[25]oct-4-yloxy)-2-pyrazinyl)-N-phenyl-1H-indazol-5-amine bis(2,2,2-trifluoroacetate)] | 4 | 0.039 | 
Cn1nccc1-c1ccc2[nH]nc(-c3cncc(O[C@H]4CNCCC45CC5)n3)c2c1 [Example 252, 3-(6-((4R)-6-azaspiro[2.5]oct-4-yloxy)-2-pyrazinyl)-5-(1-methyl-1H-pyrazol-5-yl)-1H-indazole] | 70 | 0.121 | 
N#Cc1ccc2[nH]nc(-c3cncc(O[C@H]4CNCCC45CC5)n3)c2c1 [Example 254, 3-(6-((4R)-6-azaspiro[2.5]oct-4-yloxy)-2-pyrazinyl)-1H-indazole-5-carbonitrile] | 364 |  | > 1
C#Cc1ccccc1-c1ccc2[nH]nc(-c3cncc(O[C@H]4CNCCC45CC5)n3)c2c1 [Example 266, 3-(6-((4R)-6-azaspiro[25]oct-4-yloxy)-2-pyrazinyl)-5-(2-ethynylphenyl)-1H-indazole bis(2,2,2-trifluoroacetate)] | 13 | 0.044 | 
C=C(Cl)c1ccccc1-c1ccc2[nH]nc(-c3cncc(O[C@H]4CNCCC45CC5)n3)c2c1 [Example 267, 3-(6-((4R)-6-azaspiro[25]oct-4-yloxy)-2-pyrazinyl)-5-(2-(1-chloroethenyl)phenyl)-1H-indazole bis(2,2,2-trifluoroacetate)] | 30 | 0.044 | 
CC(=O)c1ccc2[nH]nc(-c3cncc(O[C@H]4CNCCC45CC5)n3)c2c1 [Example 268, 1-(3-(6-((4R)-6-azaspiro[25]oct-4-yloxy)-2-pyrazinyl)-1H-indazol-5-yl)ethanone 2,2,2-trifluoroacetate] | 105 | 0.146 | 
OCCc1ccc2[nH]nc(-c3cncc(O[C@H]4CNCCC45CC5)n3)c2c1 [Example 270, 2-(3-(6-((4R)-6-azaspiro[25]oct-4-yloxy)-2-pyrazinyl)-1H-indazol-5-yl)ethanol hydrochloride] | 46 | 0.166 | 
CC(CO)c1ccc2c(c1)c(-c1cncc(O[C@H]3CNCCC34CC4)n1)nn2C (stereo partly drawn) [Example 271, 2-(3-(6-((4R)-6-azaspiro[25]oct-4-yloxy)-2-pyrazinyl)-1-methyl-1H-indazol-5-yl)-1-propanol] | 159 | 0.2 | 
c1cc2[nH]nc(-c3cncc(O[C@H]4CNCCC45CC5)n3)c2cc1-c1cncc(C2CC2)n1 [Example 275, 3-(6-((4R)-6-azaspiro[2.5]oct-4-yloxy)-2-pyrazinyl)-5-(6-cyclopropyl-2-pyrazinyl)-1H-indazole] | 9 | 0.099 | 
COc1cc(-c2c[nH]c3ccc(-c4c(F)cccc4F)cc23)nc(N2CCC(N)CC2)n1 [Example 276, 1-(4-(5-(2,6-difluorophenyl)-1H-indol-3-yl)-6-methoxypyrimidin-2-yl)piperidin-4-amine] | 344 | 0.929 | 
COc1cc(-c2c[nH]c3ccc(-c4c(F)cccc4F)cc23)nc(N[C@@H]2CCCNC2)n1 [Example 278, (R)-4-(5-(2,6-difluorophenyl)-1H-indol-3-yl)-6-methoxy-N-(piperidin-3-yl)pyrimidin-2-amine] | 565 | 0.7 | 
CC(C)Oc1cncc(-c2ccc3[nH]cc(-c4nnc(N5CCC(N)CC5)o4)c3c2)n1 [Example 280, 1-(5-(5-(6-isopropoxypyrazin-2-yl)-1H-indol-3-yl)-1,3,4-oxadiazol-2-yl)piperidin-4-amine] | 22 | 0.161 | 
CC(C)Oc1cncc(-c2ccc3[nH]cc(-c4nn(C(C)C)c(=O)o4)c3c2)n1 [Example 281, 5-(5-(6-isopropoxypyrazin-2-yl)-1H-indol-3-yl)-3-isopropyl-1,3,4-oxadiazol-2(3H)-one] | 70 | 0.597 | 
CN(C)C(=O)c1ccc2[nH]nc(-c3ccnc(N4CCC(N)CC4)n3)c2c1 [Example 284, 3-(2-(4-aminopiperidin-1-yl)pyrimidin-4-yl)-N,N-dimethyl-1H-indazole-5-carboxamide] | 839 | > 1 | 

The next lines start with results.

IC50 [1] [nM] | IC50 ([2]; read-out: Pim2_IC50) [µM] | Structure (SMILES) | IC50 ([2]; Pim2_IC50 (uM)) [µM]
158 | 0.733 | CC1CCCCN1c1nc(-c2ccc3[nH]cc(-c4cncc(O[C@@H]5CCCNC5)n4)c3c2)cs1 (mixture of isomers) [Example 303] | 
23 | 0.093 | CC1CCCN(c2cnc(-c3ccc4[nH]cc(-c5cncc(O[C@@H]6CCCNC6)n5)c4c3)cn2)C1 (mixture of isomers) [Example 306] | 
30 | 0.203 | CC(C)C1CCNCC1Oc1cncc(-c2n[nH]c3ccc(-c4c(F)cccc4F)cc23)n1 (single isomer, unassigned) [Example 394] | 
28 | 0.076 | Fc1cccc(F)c1-c1ccc2[nH]nc(-c3cncc(SC4CCCNC4)n3)c2c1 (single isomer, unassigned) [Example 415] | 
105 | 0.174 | Fc1cccc(F)c1-c1ccc2[nH]nc(-c3cncc(OC4C=CCNC4)n3)c2c1 (single isomer, unassigned) [Example 426] | 
30 | 0.076 | Fc1cccc(F)c1-c1ccc2[nH]nc(-c3cncc(OC4CCNCC45CC5)n3)c2c1 (single isomer, unassigned) [Example 429] | 
159 | 0.407 | Fc1cccc(F)c1-c1ccc2[nH]cc(-c3cncc(OC4CNCCC45CC5)n3)c2c1 (single isomer, unassigned) [Example 439] | 
70 | 0.196 | CC1CNCC(Oc2cncc(-c3n[nH]c4ccc(-c5c(F)cccc5F)cc34)n2)C1 (single isomer, unassigned) [Example 468] | 
69 |  | c1cnc(N2CCOCC2)c(-c2ccc3[nH]cc(-c4cncc(O[C@@H]5CCCNC5)n4)c3c2)c1 [Example 338] | 
70 |  | CC(C)Oc1cncc(-c2ccc3[nH]cc(-c4nnc(N5CCC[C@@H](N)C5)o4)c3c2)n1 [Example 525] | 
